Experiments:
[1] = tested on: micro-tumors (spheroids) from patient tumor tissue; assay: Chemo-sensitivity screening of compounds distributed in Matrigel on patient micro-tumors (growth by imaged area); type: cell-based, human; conditions: for cancer cell proliferation (spheroid/micro-tumour growth) inhibition: increasing concentrations, inhibited = spheroid grown to less than 1.5x original size after 7 days at least at highest concentrations tested
Protocol: Materials and Solutions: • Support: Matrigel® available from BD Biosciences. • Arrays: Micro slide format arrays with 96 individual wells surrounded by a common reservoir.
Compounds, Matrigel® and arrays are kept at 5° C. (cooling device) throughout the process when not in the freezer. • 1. Compounds were diluted in Matrigel® (Fluid) as single compounds and/or in combinations equal to standard treatment regimens of patients with colorectal cancer. • 2. Matrigel® with compounds were added to individual wells of the arrays (Fluid) • 3. Arrays were centrifuged 10 min at 3000 RPM (cold) • 4. Arrays were stored at −18° C. (Solid)—ready for use
(§1) Materials and Solutions: • Array prepared as described in Example 1 • STEM media: DMEM/F12 w. 15% Hepes (Gibco 11330-032), StemPro hESC SFM growth supplement (50×):1× • BSA 25%, Gibco A10008-01: 1.8%, FGF-basic (10 ug/ml): 8 ng/ml, 2-Mercaptoethanol Gibco 21985 (55 mM): 0.1 mM, Penicillin/streptomycin 200 U/ml/200 ug/ml (=2× usual conc.), Gentamycin Sigma G1272: 1:100 (=2× usual conc.), Amphotericin (fungicide): 1:100 (=1× usual conc.), Hepes 15 mM • Cooling device for keeping 5° C. • Incubator, 37° C. (CO2, 99% humidity for cell culture)
Procedure: • 1. Tumor tissue from patient was prepared to form a population of small individual micro-tumors (spheroids) • 2. Micro-tumors were suspended in cold STEM media • 3. The array was taken directly from freezer and placed on the cooling device (solid) • 4. 3 ml micro tumor suspension was added to the reservoir of the array and the array was left for 7 min. to allow cells to distribute and settle into individual wells of the array • 5. STEM media was gently removed from reservoir—leaving the micro tumors in the wells • 6. The array was moved to refrigerator (5° C.) and left for 30 min to allow Matrigel® to liquefy and the cells to settle at the bottom of the array (fluid) • 7. Hereafter the array was incubated at 37° C. for 1 hr. to allow the Matrigel® to solidify and entrap the cells in a certain position (solid) • 8. The array with micro-tumors positioned at the bottom was imaged at an automated microscope • 9. Images were acquired every day for 10 days and micro-tumor growth (and inhibition of growth) was measured by quantifying the area of the micro-tumors.
In general cancer cell proliferation as evidenced by spheroid (micro-tumour) growth was considered inhibited if the spheroid had grown to less than 1.5× the original size after 7 days of incubation at least at the highest concentrations tested.

[2] = tested on: micro-tumors (spheroids) from patient tumor tissue; assay: Screening of compounds imbedded in thermo sensitive nano-particles distributed in Matrigel on patient micro-tumors; type: cell-based, human; conditions: FIG. 4; images at day 0, 3, 5 and 7; compound released from nano-particles at 42° C.
Protocol: Materials and Solutions: • Nano-particles containing chemo therapeutic compounds • Support: Matrigel® available from BD Biosciences, • Arrays: Micro slide format array with 96 individual wells surrounded by a common reservoir as described in Example 1 • Cooling device for keeping 5° C.
Nano-particles, Matrigel® and arrays were kept at 5° C. (cooling block) throughout the process when not in the freezer. • 1. Compound containing nano-particles were diluted in Matrigel® (fluid). • 2. Matrigel containing the nano-particles (from above point 1) were added to individual wells of the array • 3. The arrays were centrifuged 10 min at 3000 RPM (cold) • 4. The arrays were stored at −18° C. for 24 hrs. (solid)
as §1, with “prepared accordingly to” for “prepared as described in”, “Example 2” for “Example 1”, “•” for “• Cooling device for keeping 5° C. •”, “C. […]” for “C. (CO2, 99% humidity for cell culture)”
Procedure: • 1. […] Images were acquired every day for 10 days and micro-tumor growth (and inhibition of growth) was measured by quantifying the area of the micro-tumors.

Compound | cancer cell proliferation (spheroid/micro-tumour growth) inhibition ([1]; patient 1, FIG. 2a) | cancer cell proliferation (spheroid/micro-tumour growth) inhibition ([1]; patient 2, FIG. 2a) | time trace of micro-tumour (spheroid) growth, cancer cell proliferation ([1]; FIG. 3, presence or absence of compound) | micro-tumour growth, proliferation of cancer cells [2]
O=c1[nH]cc(F)c(=O)[nH]1 [5FU] | inhibited | inhibited |  | 
CCc1c2c(nc3ccc(OC(=O)N4CCC(N5CCCCC5)CC4)cc13)-c1cc3c(c(=O)n1C2)COC(=O)[C@]3(O)CC [Irinotecan] |  |  | clearly inhibited cancer cell proliferation | inhibits proliferation
O=C1[O][Pt]2([NH][C@@H]3CCCC[C@H]3[NH]2)[O]C1=O [Oxaliplatin] |  | inhibited |  | 
CCc1c2c(nc3ccc(O)cc13)-c1cc3c(c(=O)n1C2)COC(=O)[C@]3(O)CC [SN38] | inhibited | inhibited |  | 

Source: patent US10371695B2, “Identifying compounds modifying a cellular phenotype” (2cureX ApS, priority 2014, dated 2019)
